Test results as given in patent publication US20140206624A1, “TREATMENT OF LEUKEMIA” (THE BRIGHAM AND WOMEN'S HOSPITAL, INC., priority 2011, published 2014).

Tested on: L-GMP population
Test: L-GMP and mature myeloid cell proportion in leukemic BM
Assay type: in vivo, mouse
Details: seven days following pI-pC, Mx1-Cre+
Description: (§1) Seven days following the administration of saline or pI-pC, secondary mice transplanted with MLL-AF9-positive FoxO1/3/4^floxed; Mx1-Cre+ leukmic BM cells were euthanized. Leukemic BM cells were then isolated from each treatment condition (Saline (Ctrl) versus pI-pC (pI-pC)) were analyzed for the proportion of L-GMPs (lineage^low, Sca-1^−, cKit^hi, CD34^+, FcgRII/III^+, p=0.039; n=3).
as §1, with “leukemic” for “leukmic”, “mature myeloid cells (lineage^hi, CD11b^+, p=0.0098; n=3)” for “L-GMPs (lineage^low, Sca-1^−, cKit^hi, CD34^+, FcgRII/III^+, p=0.039; n=3).”
L-GMP and GMP populations were analyzed and sorted with a BD FACSARIA™ instrument (BD™ Biosciences). To analyze and isolate L-GMPs and GMPs, total BM cells were recovered from flushing the tibias and femurs of leukemic and healthy mice respectively with PBS supplemented with 2% FBS and 1% Penicillin/Streptomycin (F-PBS). […] For Phosphoflow experiments, cells were stained with cKit-Ax750 and CD34-antibodies in combination with phospho-AKT^Ser473-PE, phospho-AKT^Thr308-APC or phospho-S6^Ser235/236-APC antibodies and analyzed on a FACSAria according to the following protocol: • 1. […]

Q: With polyinosine-polycytidyline [pI-pC] as the substance, how does the L-GMPs read?
A: The L-GMPs was “immunophenotypic reduction”.

Q: And the “lineage^hi, CD11b^hi(+) myeloid cells” value?
A: The value was “concomitant increase”.
